From patent US4452812A, “Organic complex of platinum, its preparation and its use for treating malignant tumors” (Sanofi, priority 1980, dated 1984)

Columns and labels:
sarcoma S 180 = assay: Anti-tumour activity, sarcoma S 180 ascite, i.p. graft, i.p. treatment; assay type: in vivo, mouse (Swiss female); conditions: for ILS: single i.p. on D1
Experimental: Swiss female mice (Evic-Ceba, Bordeaux) of 20 to 22 g
10^6 cells intraperitoneally grafted on D0
intraperitoneal treatment 24 hours later, D1, in one single injection.
(§1) The solutions of these compounds were prepared extemporaneously.

[1] = tested on: renal and hepatic parenchyma; assay: Renal and hepatic toxicity; assay type: in vivo, mouse (Swiss female)
Experimental: It was thus of interest to compare the effects of the novel compound of the invention with those of the already known compounds listed above on the kidney and the liver, i.e. the organs in which the greatest amount of platinum accumulates.
Swiss female mice (Evic-Ceba, Bordeaux) of 20 to 22 g were treated by intraperitoneal route D0 and then sacrificed on D1, D4 and D10.
Slices 5 microns thick were coloured with hemalun eosine stain.

abdominal viscera = assay: Peritonitis (adhesion and hardening of abdominal viscera); assay type: in vivo, mouse
Experimental: as §1
As discussed above this problem seems to be linked to the presence of the 1,2-diaminocyclohexane ligand.

leukemia L 1210 = assay: Anti-tumour activity, leukemia L 1210, i.p. graft, i.p. treatment
Experimental: […] females (CNRS, Orleans) of 20 to 22 g
(a) i.p. graft--i.p. treatment
10^5 cells were grafted intraperitoneally on D0 and intraperitoneal treatment was carried out 24 hours later, D1, in one single injection.
PHD and PHM were suspended in a 4% Klucel (hydroxy propyl cellulose) solution (the word "Klucel" is a registered trademark of Hercules Incorporated, Delaware, U.S.A.).
The solutions of these compounds were prepared extemporaneously. The increase in life span, ILS (%), were calculated in comparison with the controls by the following formula: [formula] Deaths were recorded until day 30 for L 1210 tumour and until day 60 for S180 tumour.

mouse = assay: Acute toxicity in the mouse; assay type: in vivo, mouse (Swiss female); conditions: mouse, one single injection
Experimental: Acute toxicity, one single injection of the compound, was measured using Swiss female mice (Evic-Ceba, Bordeaux) of 21 to 23 g. and Sprague-Dawley rats. Ten animals were treated for each dose studied.

L 1210 cells = assay: Cytotoxicity on L 1210 cells in culture; assay type: cell-based; conditions: read-out: ID50 (reduces by 50% the rate of growth of the cells); usually 24 to 48 hours contact
DNA = assay: Platinum fixed on DNA of L 1210 cells in vivo; design: species or system mouse (DBA/2); conditions: PDD 9 mg/kg, PHIC 150 mg/kg; two hours after treatment on D3
Experimental: DBA/2 mice received 10^6 L 1210 cells on D0 and were treated three days later with an amount of platinum compound equal to the LD0 in the healthy mouse. Two hours after treatment on D3, the animals were sacrificed. […] Platinum was monitored by atomic absorption for whole cells and also on the DNA which was purified by phenol extraction. […] Under these conditions, one fixed platinum atom per 3000 nucleotides was found, i.e. a total of 1% of the amount which penetrated the cells was complexed to DNA. […] 10^-16 of platinum per cell.

[2] = Stability in sodium chloride solution; assay type: physicochemical; conditions: 9% sodium chloride
Experimental: This compound has an exceptionally high degree of solubility.
as §1

[3] = S 180, 1 mg/kg i.p. on D1, day 60
[4] = S 180, 2 mg/kg i.p. on D1, day 60
[5] = S 180, 4 mg/kg i.p. on D1, day 60
[6] = L 1210, 4 mg/kg i.p. on D1, day 30
[7] = S 180, 5 mg/kg i.p. on D1, day 60
[8] = S 180, 10 mg/kg i.p. on D1, day 60
[9] = S 180, 50 mg/kg i.p. on D1, day 60

For NC1CCCCC1N.[Cl][Pt][Cl] (stereo not drawn) [PHD, CIS-DICHLORO(1,2-DIAMINOCYCLOHEXANE) PLATINUM (II)], the ILS (sarcoma S 180; 1 mg/kg) was 100%, the ILS (sarcoma S 180; 2 mg/kg) was 128% and the ILS (sarcoma S 180; 4 mg/kg) was 127%. The Survivals (sarcoma S 180; [3]) was 0%, the Survivals (sarcoma S 180; [4]) was 20% and the Survivals (sarcoma S 180; [5]) was 10%. The “renal and hepatic alterations” value ([1]; mouse, in vivo, ip) was “vascular alterations without any hyaline casts”, the “occurrence of peritonitis in relation to the 1,2-diaminocyclohexane ligand” value (from here on “occurrence of peritonitis in relation”) (abdominal viscera; mouse, in vivo, ip) was “seems to be correlated with the presence of 1,2-diaminocyclohexane” and the ILS (leukemia L 1210; 1 mg/kg, single i.p. on D1) was 5%. The ILS (leukemia L 1210; 2 mg/kg, single i.p. on D1) was 49%, the ILS (leukemia L 1210; 4 mg/kg, single i.p. on D1) was 65% and the Survivals (leukemia L 1210; L 1210, 1 mg/kg i.p. on D1, day 30) was 0%. The Survivals (leukemia L 1210; L 1210, 2 mg/kg i.p. on D1, day 30) was 0%, the Survivals (leukemia L 1210; [6]) was 0% and the “LD0 (maximum nonlethal dose)” value (mouse) was 7 mg/kg. For the same compound, the IC50 (L 1210 cells) was 130 nM.
With cis-citratodiammineplatinum (II) [PAC] the “renal and hepatic alterations” value ([1]; mouse, in vivo, ip) was “These alterations were observed”, the “occurrence of peritonitis in relation” value (abdominal viscera; mouse, in vivo, ip) was “never observed” and the ILS (leukemia L 1210; 100 mg/kg, single injection on D1) was 17%. For the same compound, the “LD0 (maximum nonlethal dose)” value (mouse) was 125 mg/kg.
For “cis-(t-aconitato) (1,2-diaminocyclohexane) platinum (II) [PHTA, reference compound]”, the ILS (leukemia L 1210; 500 mg/kg, single injection on D1) was 13% and the “LD0 (maximum nonlethal dose)” value (mouse) was > 500 mg/kg.
N.N.[Cl][Pt][Cl] [PDD, cis-dichlorodiammine platinum (II)] gave an ILS (sarcoma S 180; 4 mg/kg) of 41%, an ILS (sarcoma S 180; 8 mg/kg) of 65% and a Survivals (sarcoma S 180; [5]) of 0%. The Survivals (sarcoma S 180; S 180, 8 mg/kg i.p. on D1, day 60) was 0%, the “Number of fixed platinum atoms per nucleotide on DNA” value (DNA) was 1/30000 and the “amount that penetrated the cells which was complexed to DNA” value (DNA) was 1%. For the same compound, the “nucleotides per one fixed platinum atom” value (DNA) was 3000 nucleotides, the “occurrence of peritonitis in relation” value (abdominal viscera; mouse, in vivo, ip) was “never observed” and the ILS (leukemia L 1210; 2 mg/kg, single i.p. on D1) was 28%. The ILS (leukemia L 1210; 4 mg/kg, single i.p. on D1) was 52%, the ILS (leukemia L 1210; 6 mg/kg, single i.p. on D1) was 75% and the ILS (leukemia L 1210; 8 mg/kg, single i.p. on D1) was 106%. It also gave a Survivals (leukemia L 1210; [6]) of 0%, a Survivals (leukemia L 1210; L 1210, 6 mg/kg i.p. on D1, day 30) of 0% and a Survivals (leukemia L 1210; L 1210, 8 mg/kg i.p. on D1, day 30) of 0%. For the same compound, the “Surviving animals having received L 1210 leukaemia and S 180 sarcoma” value (leukemia L 1210; summary for L 1210 and S 180) was “No” and the IC50 (L 1210 cells) was 2330 nM.
With NC1CCCCC1N.O=C([O-])CC(=O)[O-].[Pt+2] (stereo not drawn) [PHM, cis-malonato (1,2 diaminocyclohexane) platinum (II)] the ILS (sarcoma S 180; 5 mg/kg) was 25%, the ILS (sarcoma S 180; 10 mg/kg) was 36% and the ILS (sarcoma S 180; 20 mg/kg) was 44%. It also gave an ILS (sarcoma S 180; 40 mg/kg) of 60%, an ILS (sarcoma S 180; 50 mg/kg) of 96% and a Survivals (sarcoma S 180; [7]) of 0%. It also gave a Survivals (sarcoma S 180; [8]) of 0%, a Survivals (sarcoma S 180; S 180, 20 mg/kg i.p. on D1, day 60) of 0% and a Survivals (sarcoma S 180; S 180, 40 mg/kg i.p. on D1, day 60) of 0%. The Survivals (sarcoma S 180; [9]) was 0%, the “renal and hepatic alterations” value ([1]; mouse, in vivo, ip) was “These alterations were observed” and the “occurrence of peritonitis in relation” value (abdominal viscera; mouse, in vivo, ip) was “seems to be correlated with the presence of 1,2-diaminocyclohexane”. For the same compound, the peritonitis (abdominal viscera; mouse, in vivo, ip) was “most of the mice reaching 30 days of survival treatment with PHM and PHIC developed peritonitis”, the ILS (leukemia L 1210; 50 mg/kg, single i.p. on D1) was 103% and the Survivals (leukemia L 1210; L 1210, 50 mg/kg i.p. on D1, day 30) was 10%. The IC50 (L 1210 cells) was 390 nM.
In the case of “cis-isocitratodiammineplatinum(II) [PAIC]”, the “occurrence of peritonitis in relation” value (abdominal viscera; mouse, in vivo, ip) is reported as “never observed”, the ILS (leukemia L 1210; 75 mg/kg, single injection on D1) is reported as 74% and the “LD0 (maximum nonlethal dose)” value (mouse) is reported as 75 mg/kg.
“cis-citrato (1,2-diaminocyclohexane) platinum (II) [PHC]” gave an ILS (sarcoma S 180; 10 mg/kg) of 20%, an ILS (sarcoma S 180; 25 mg/kg) of 124% and an ILS (sarcoma S 180; 50 mg/kg) of 121%. For the same compound, the Survivals (sarcoma S 180; [8]) was 0%, the Survivals (sarcoma S 180; S 180, 25 mg/kg i.p. on D1, day 60) was 20% and the Survivals (sarcoma S 180; [9]) was 30%. The “renal and hepatic alterations” value ([1]; mouse, in vivo, ip) was “did not provoke any significant alterations”, the “occurrence of peritonitis in relation” value (abdominal viscera; mouse, in vivo, ip) was “seems to be correlated with the presence of 1,2-diaminocyclohexane” and the ILS (leukemia L 1210; 120 mg/kg, single i.p. on D1, with 5 mice only) was 90%. It also gave a Survivals (leukemia L 1210; L 1210, 120 mg/kg i.p. on D1, day 30) of 0%.
In the case of NC1CCCCC1N.O.O=S(=O)([O-])[O-].[Pt+2] (stereo not drawn) [PHS, cis-sulfatomonoaquo(1,2 diaminocyclohexane) platinum (II)], the ILS (sarcoma S 180; 0.5 mg/kg) is reported as 4%, the ILS (sarcoma S 180; 1 mg/kg) is reported as 10% and the ILS (sarcoma S 180; 2 mg/kg) is reported as 25%. It also gave an ILS (sarcoma S 180; 4 mg/kg) of 47%, an ILS (sarcoma S 180; 5 mg/kg) of 112% and a Survivals (sarcoma S 180; S 180, 0.5 mg/kg i.p. on D1, day 60) of 0%. For the same compound, the Survivals (sarcoma S 180; [3]) was 0%, the Survivals (sarcoma S 180; [4]) was 0% and the Survivals (sarcoma S 180; [5]) was 0%. For the same compound, the Survivals (sarcoma S 180; [7]) was 10%, the “renal and hepatic alterations” value ([1]; i.p. at ~LD0 (mg/kg): PDD 8, PAC 100, PHM 50, PHD 4, PHS 5, PHC 120, PHIC 150, D1, D4, D10) was “vascular dilation and proximal distorted tubules” and the “change to chlorinated derivative in sodium chloride solution” value [2] was “almost instantaneously to the formation of a yellow insoluble chlorinated compound”. For the same compound, the “occurrence of peritonitis in relation” value (abdominal viscera; i.p.) was “seems to be correlated with the presence of 1,2-diaminocyclohexane”, the ILS (leukemia L 1210; 5 mg/kg, single i.p. on D1) was 112% and the Survivals (leukemia L 1210; L 1210, 5 mg/kg i.p. on D1, day 30) was 40%. It also gave an IC50 (L 1210 cells) of 190 nM.
